In ChEMBL document CHEMBL1151064, “Conformationally restricted 1,5-diarylpyrazoles are selective COX-2 inhibitors” (Bioorg Med Chem Lett, 1996):

Tests used:
[1] = biological target: T1, Prostaglandin G/H synthase 2 (Homo sapiens, UniProt P35354); assay: Inhibition of Prostaglandin G/H synthase 2 (COX-2)
T1 sequence (P35354 whole entry): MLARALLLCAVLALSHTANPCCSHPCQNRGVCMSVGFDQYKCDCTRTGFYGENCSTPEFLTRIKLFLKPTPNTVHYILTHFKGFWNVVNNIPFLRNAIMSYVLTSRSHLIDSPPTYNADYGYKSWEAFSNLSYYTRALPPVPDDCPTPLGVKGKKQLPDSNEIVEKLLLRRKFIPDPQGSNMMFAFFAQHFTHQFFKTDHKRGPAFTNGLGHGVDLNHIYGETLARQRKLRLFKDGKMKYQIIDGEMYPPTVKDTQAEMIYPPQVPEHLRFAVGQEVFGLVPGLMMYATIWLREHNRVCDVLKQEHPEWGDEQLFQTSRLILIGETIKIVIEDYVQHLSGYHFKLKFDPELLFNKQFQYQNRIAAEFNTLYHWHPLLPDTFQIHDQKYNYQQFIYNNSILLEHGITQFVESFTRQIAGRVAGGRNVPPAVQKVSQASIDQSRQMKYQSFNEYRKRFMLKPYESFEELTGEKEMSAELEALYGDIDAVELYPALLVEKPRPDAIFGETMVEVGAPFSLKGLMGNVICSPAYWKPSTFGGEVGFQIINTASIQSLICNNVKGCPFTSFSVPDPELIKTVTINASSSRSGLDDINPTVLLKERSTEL

[2] = biological target: T2, Prostaglandin G/H synthase 1 (Homo sapiens, UniProt P23219); assay: Relative activity against COX-1/COX-2
[3] = biological target: T2, Prostaglandin G/H synthase 1; assay: Inhibition of Prostaglandin G/H synthase 1 (COX-1)
Rattus norvegicus = assay: Compound was tested for inhibitory activity in carrageenan rat foot edema assay; format: functional

T2 sequence (P23219 whole entry): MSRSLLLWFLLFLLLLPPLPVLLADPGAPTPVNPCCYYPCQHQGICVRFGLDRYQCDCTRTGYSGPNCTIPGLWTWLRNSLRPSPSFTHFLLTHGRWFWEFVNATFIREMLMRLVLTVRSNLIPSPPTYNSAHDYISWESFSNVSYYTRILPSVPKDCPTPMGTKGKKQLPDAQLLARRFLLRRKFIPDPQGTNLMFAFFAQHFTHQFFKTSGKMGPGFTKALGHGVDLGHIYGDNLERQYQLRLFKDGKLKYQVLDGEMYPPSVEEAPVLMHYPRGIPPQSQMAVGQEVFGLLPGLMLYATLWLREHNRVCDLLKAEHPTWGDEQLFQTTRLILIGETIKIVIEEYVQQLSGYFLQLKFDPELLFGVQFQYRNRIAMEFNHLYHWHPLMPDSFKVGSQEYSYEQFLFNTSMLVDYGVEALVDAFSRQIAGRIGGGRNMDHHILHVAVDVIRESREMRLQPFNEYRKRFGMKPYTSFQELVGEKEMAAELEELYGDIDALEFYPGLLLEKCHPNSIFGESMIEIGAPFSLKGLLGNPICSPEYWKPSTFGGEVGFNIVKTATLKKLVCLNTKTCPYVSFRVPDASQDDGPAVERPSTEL

Row | SMILES | IC50 [1] [nM] | Ratio [2] | IC50 [3] [nM] | ED50 (Rattus norvegicus) [mg/kg]
1 | NS(=O)(=O)c1ccc(-n2nc(C(F)(F)F)c3c2-c2ccccc2CS3)cc1 | 20 | 20 | – | –
2 | COc1ccc2c(c1)CSc1c(C(F)(F)F)nn(-c3ccc(S(N)(=O)=O)cc3)c1-2 | 13 | 23 | 300 | –
3 | COc1cc2c(cc1F)-c1c(c(C(F)(F)F)nn1-c1ccc(S(N)(=O)=O)cc1)[S+]([O-])C2 (centres undefined) | 1500 | > 67 | > 100000 | –
4 | NS(=O)(=O)c1ccc(-n2nc(C(F)(F)F)c3c2-c2cc(F)ccc2CS3)cc1 | 21 | 297 | 6240 | –
5 | COc1cc2c(cc1F)-c1c(c(C(F)F)nn1-c1ccc(S(N)(=O)=O)cc1)SC2 | 32 | > 3120 | > 100000 | –
6 | COc1cc2c(cc1F)-c1c(c(C(F)(F)F)nn1-c1ccc(S(C)(=O)=O)cc1)SC2 | 75 | > 1330 | > 100000 | –
7 | COc1cc2c(cc1F)-c1c(c(C(F)(F)F)nn1-c1ccc(S(N)(=O)=O)cc1)SC2 | 9 | 303 | 2730 | 17.7
8 | N#Cc1nn(-c2ccc(S(N)(=O)=O)cc2)c2c1SCc1cc(F)ccc1-2 | 140 | 5 | 760 | –
9 | NS(=O)(=O)c1ccc(-n2nc(C(F)(F)F)c3c2-c2ccc(F)cc2CS3)cc1 | 40 | 7 | 270 | –
10 | NS(=O)(=O)c1ccc(-n2nc(C(F)(F)F)c3c2-c2ccccc2OC3)cc1 | 1330 | 5.3 | – | –
11 | NS(=O)(=O)c1ccc(-n2nc(C(F)(F)F)c3c2-c2cc(F)c(F)cc2CS3)cc1 | 6 | 381 | 2670 | –
12 | Cc1cc2c(cc1F)-c1c(c(C(F)(F)F)nn1-c1ccc(S(N)(=O)=O)cc1)SC2 | 16 | 693 | 11100 | 15
13 | Cc1ccc2c(c1)CSc1c(C(F)(F)F)nn(-c3ccc(S(N)(=O)=O)cc3)c1-2 | 22 | 36 | 790 | –
